Laboratory results from US20260159511A1, “SMALL MOLECULE STING ANTAGONISTS” (CURADEV PHARMA PVT. LTD., priority 2021, published 2026).

system: IRF pathway in THP1-Dual™ cells, THP-1 (HAQ); experiment: Reporter gene expression assay in THP-1 cells (THP1-Dual, IRF pathway Lucia luciferase reporter, 2′,3′-cGAMP stimulation); format: cell-based, human; settings: Homo sapiens; THP1-Dual cells preincubated with compound 10 minutes, stimulation with 5 μM 2′,3′-cGAMP for 20 hr, QUANTI-Luc readout of the supernatant; read-out: THP-1 (HAQ) Activity (IC50 value range)
Protocol: Reporter Gene Expression Assay in THP-1 Cells
THP1-Dual™ cells (Invivogen) were derived from the human THP-1 monocyte cell line by stable integration of two inducible reporter constructs. As a result, THP1-Dual™ cells allow the simultaneous study of the IRF pathway, by assessing the activity of a secreted luciferase (Lucia) and the NF-κB pathway, by monitoring the activity of secreted SEAP. 5×10^4 THP1-Dual™ cells were seeded in 384-well plates in growth medium and preincubated with novel compounds for 10 minutes followed by stimulation with 5 μM 2′,3′-cGAMP. After 20 hr of stimulation the supernatant was removed and the IRF pathway reporter protein was readily measured in the cell culture supernatant using QUANTI-Luc™ (Invivogen), a luciferase detection reagent on a Spectramax i3X luminometer.

SMILES | IC50 [nM]
O=C(Nc1ccc2c(c1)N(Cc1ccccc1)C(=O)CS2)Nc1c[nH]c2ccc(-c3ccc4c(c3)OCO4)cc12 [Example 65, 1-(5-(benzo[d][1,3]dioxol-5-yl)-1H-indol-3-yl)-3-(4-benzyl-3-oxo-3,4-dihydro-2H-benzo[b][1,4]thiazin-6-yl)urea] | < 1000
O=C(Nc1ccc2c(c1)N(Cc1ccccc1)C(=O)CS2)Nc1c[nH]c2ccc(-c3cnoc3)cc12 [Example 66, 1-(4-benzyl-3-oxo-3,4-dihydro-2H-benzo[b][1,4]thiazin-6-yl)-3-(5-(isoxazol-4-yl)-1H-indol-3-yl)urea] | < 1000
O=C(Nc1ccc2c(c1)N(Cc1ccccc1)C(=O)CS2)Nc1c[nH]c2ccc(-c3cccc(C(F)(F)F)c3)cc12 [Example 67, 1-(4-benzyl-3-oxo-3,4-dihydro-2H-benzo[b][1,4]thiazin-6-yl)-3-(5-(3-(trifluoromethyl)phenyl)-1H-indol-3-yl)urea] | < 1000
CC(O)Cn1cc(-c2ccc3[nH]cc(NC(=O)Nc4ccc5c(c4)N(Cc4ccccc4)C(=O)CS5)c3c2)cn1 (stereo not drawn) [Example 68, 1-(4-benzyl-3-oxo-3,4-dihydro-2H-benzo[b][1,4]thiazin-6-yl)-3-(5-(1-(2-hydroxypropyl)-1H-pyrazol-4-yl)-1H-indol-3-yl)urea] | 1000 to 10000
CC1CN(Cc2cc(F)cc(F)c2)c2cc(NC(=O)Nc3c[nH]c4ccc(F)cc34)ccc2S1 (stereo not drawn) [Example 69, 1-(4-(3,5-Difluorobenzyl)-2-methyl-3,4-dihydro-2H-benzo[b][1,4]thiazin-6-yl)-3-(5-fluoro-1H-indol-3-yl)urea] | < 1000
CC1CN(C(=O)c2ccccc2)c2cc(NC(=O)Nc3c[nH]c4ccccc34)ccc2S1 (stereo not drawn) [Example 70, 1-(4-Benzoyl-2-methyl-3,4-dihydro-2H-benzo[b][1,4]thiazin-6-yl)-3-(1H-indol-3-yl)urea] | < 1000
O=C(Nc1ccc2c(c1)N(Cc1ccccc1)CCO2)Nc1c[nH]c2ccccc12 [Example 71, 1-(4-benzyl-3,4-dihydro-2H-benzo[b][1,4]oxazin-6-yl)-3-(1H-indol-3-yl)urea] | < 1000
O=C(Nc1ccc2c(c1)OCCN2Cc1ccccc1)Nc1c[nH]c2ccccc12 [Example 72, 1-(4-benzyl-3,4-dihydro-2H-benzo[b][1,4]oxazin-7-yl)-3-(1H-indol-3-yl)urea] | < 1000
O=C(Nc1ccc2c(c1)N(Cc1c(F)cccc1Cl)CCO2)Nc1c[nH]c2ccccc12 [Example 74, 1-(4-(2-chloro-6-fluorobenzyl)-3,4-dihydro-2H-benzo[b][1,4]oxazin-6-yl)-3-(1H-indol-3-yl)urea] | < 1000
O=C(Nc1ccc2c(c1)OCCN2Cc1c(F)cccc1Cl)Nc1c[nH]c2ccccc12 [Example 76, 1-(4-(2-chloro-6-fluorobenzyl)-3,4-dihydro-2H-benzo[b][1,4]oxazin-7-yl)-3-(1H-indol-3-yl)urea] | < 1000
CN1CCSc2ccc(NC(=O)Nc3c[nH]c4ccccc34)cc21 [Example 78, 1-(1H-indol-3-yl)-3-(4-methyl-3,4-dihydro-2H-benzo[b][1,4]thiazin-6-yl)urea] | < 1000
CC1CN(Cc2ccccc2)c2cc(NC(=O)Nc3c[nH]c4ccccc34)ccc2S1 (stereo not drawn) [Example 83, 1-(4-benzyl-2-methyl-3,4-dihydro-2H-benzo[b][1,4]thiazin-6-yl)-3-(1H-indol-3-yl)urea] | < 1000
CC1CN(Cc2c(F)cccc2Cl)c2cc(NC(=O)Nc3c[nH]c4ccccc34)ccc2S1 (stereo not drawn) [Example 84, 1-(4-(2-chloro-6-fluorobenzyl)-2-methyl-3,4-dihydro-2H-benzo[b][1,4]thiazin-6-yl)-3-(1H-indol-3-yl)urea] | < 1000
O=C(Nc1ccc2c(c1)N(Cc1cc(F)cc(F)c1)CCO2)Nc1c[nH]c2ccccc12 [Example 90, 1-(4-(3,5-difluorobenzyl)-3,4-dihydro-2H-benzo[b][1,4]oxazin-6-yl)-3-(1H-indol-3-yl)urea] | < 1000
O=C(Nc1ccc2c(c1)N(Cc1cc(F)cc(F)c1)CCO2)Nc1c[nH]c2ccc(F)cc12 [Example 91, 1-(4-(3,5-difluorobenzyl)-3,4-dihydro-2H-benzo[b][1,4]oxazin-6-yl)-3-(5-fluoro-1H-indol-3-yl)urea] | < 1000

The remaining lines, values ahead:

IC50 [nM] | SMILES
< 1000 | O=C(Nc1ccc2c(c1)SCCN2Cc1ccccc1)Nc1c[nH]c2ccccc12 [Example 73, 1-(4-benzyl-3,4-dihydro-2H-benzo[b][1,4]thiazin-7-yl)-3-(1H-indol-3-yl)urea]
< 1000 | O=C(Nc1ccc2c(c1)N(Cc1c(F)cccc1Cl)CCS2)Nc1c[nH]c2ccccc12 [Example 75, 1-(4-(2-chloro-6-fluorobenzyl)-3,4-dihydro-2H-benzo[b][1,4]thiazin-6-yl)-3-(1H-indol-3-yl)urea]
< 1000 | O=C(Nc1ccc2c(c1)SCCN2Cc1c(F)cccc1Cl)Nc1c[nH]c2ccccc12 [Example 77, 1-(4-(2-chloro-6-fluorobenzyl)-3,4-dihydro-2H-benzo[b][1,4]thiazin-7-yl)-3-(1H-indol-3-yl)urea]
< 1000 | O=C(Nc1ccc2c(c1)N(C(=O)c1ccccc1)CCS2)Nc1c[nH]c2ccccc12 [Example 79, 1-(4-benzoyl-3,4-dihydro-2H-benzo[b][1,4]thiazin-6-yl)-3-(1H-indol-3-yl)urea]
< 1000 | O=C(Nc1ccc2c(c1)SCCN2C(=O)c1ccccc1)Nc1c[nH]c2ccccc12 [Example 80, 1-(4-benzoyl-3,4-dihydro-2H-benzo[b][1,4]thiazin-7-yl)-3-(1H-indol-3-yl)urea]
< 1000 | O=C(Nc1ccc2c(c1)SCCN2Cc1c(F)cccc1F)Nc1c[nH]c2ccccc12 [Example 81, 1-(4-(2,6-difluorobenzyl)-3,4-dihydro-2H-benzo[b][1,4]thiazin-7-yl)-3-(1H-indol-3-yl)urea]
< 1000 | Cc1cccc(F)c1CN1CCSc2cc(NC(=O)Nc3c[nH]c4ccccc34)ccc21 [Example 82, 1-(4-(2-fluoro-6-methylbenzyl)-3,4-dihydro-2H-benzo[b][1,4]thiazin-7-yl)-3-(1H-indol-3-yl)urea]
< 1000 | CC1CN(Cc2ccccc2)c2ccc(NC(=O)Nc3c[nH]c4ccccc34)cc2S1 (stereo not drawn) [Example 85, 1-(4-benzyl-2-methyl-3,4-dihydro-2H-benzo[b][1,4]thiazin-7-yl)-3-(1H-indol-3-yl)urea]
< 1000 | Cc1cc(CN2CCSc3cc(NC(=O)Nc4c[nH]c5ccccc45)ccc32)on1 [Example 86, 1-(1H-indol-3-yl)-3-(4-((3-methylisoxazol-5-yl)methyl)-3,4-dihydro-2H-benzo[b][1,4]thiazin-7-yl)urea]
< 1000 | N#Cc1ccccc1CN1CCSc2cc(NC(=O)Nc3c[nH]c4ccccc34)ccc21 [Example 87, 1-(4-(2-cyanobenzyl)-3,4-dihydro-2H-benzo[b][1,4]thiazin-7-yl)-3-(1H-indol-3-yl)urea]
< 1000 | O=C(Nc1ccc2c(c1)SCCN2Cc1cc(F)cc(F)c1)Nc1c[nH]c2ccccc12 [Example 88, 1-(4-(3,5-difluorobenzyl)-3,4-dihydro-2H-benzo[b][1,4]thiazin-7-yl)-3-(1H-indol-3-yl)urea]
< 1000 | O=C(Nc1ccc2c(c1)SCCN2Cc1ccccn1)Nc1c[nH]c2ccccc12 [Example 89, 1-(1H-indol-3-yl)-3-(4-(pyridin-2-ylmethyl)-3,4-dihydro-2H-benzo[b][1,4]thiazin-7-yl)urea]
